In US20070155832A1, “Use of sulfonamide compounds for the treatment of diabetes and/or obesity” (priority 2003, published 2007):

Experiments:
Format in all cases: biochemical
DGAT1 and DGAT2 [1] = assay: DGAT inhibition (DGAT1 and DGAT2) in rat liver microsomes
Protocol: (§1) The ability of compounds to inhibit DGAT can be measured as described in Coleman (1992) Methods in Enzymology 209, 98-102.
(§2) The inhibitory activity of sulfamic acid [[2,4,6-tris(1-methylethyl)phenyl]acetyl-2,6-bis(1-methylethyl)phenyl ester against DGAT1, DGAT2 and ACAT was measured in rat and human liver microsomes. DGAT1 and DGAT2 can be distinguished since DGAT2 is not active at high magnesium concentrations (concentrations of 50 mM or higher) whilst DGAT1 retains its activity at high magnesium concentrations.
(§3) The results obtained, expressed as the concentration of inhibitor at which 50% of the enzyme activity is inhibited, i.e. the IC50, are as follows: […]

DGAT1 [2] = molecular target: T1, DGAT1 (Rattus norvegicus, UniProt Q9ERM3); assay: DGAT1 inhibition at 100 mM Mg in rat liver microsomes
T1 construct: from tissue; host or cells: rat liver microsomes
T1 sequence (Q9ERM3 1-498): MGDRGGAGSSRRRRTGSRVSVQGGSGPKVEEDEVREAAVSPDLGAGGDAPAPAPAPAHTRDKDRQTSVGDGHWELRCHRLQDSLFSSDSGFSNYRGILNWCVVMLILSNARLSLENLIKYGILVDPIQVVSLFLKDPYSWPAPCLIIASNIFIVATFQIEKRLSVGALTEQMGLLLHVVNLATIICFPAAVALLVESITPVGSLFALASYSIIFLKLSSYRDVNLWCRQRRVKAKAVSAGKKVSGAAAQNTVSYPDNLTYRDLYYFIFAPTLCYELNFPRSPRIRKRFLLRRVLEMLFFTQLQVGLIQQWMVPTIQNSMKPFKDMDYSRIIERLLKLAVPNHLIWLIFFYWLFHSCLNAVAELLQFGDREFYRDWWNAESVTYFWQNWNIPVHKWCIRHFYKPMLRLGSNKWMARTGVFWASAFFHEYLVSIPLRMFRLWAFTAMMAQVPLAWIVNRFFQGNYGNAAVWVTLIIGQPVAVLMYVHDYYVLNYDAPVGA
Protocol: as §1, §2, §3

ACAT [3] = assay: ACAT inhibition in rat liver microsomes
Text: (§4) The ability of compounds to inhibit ACAT can be measured using an in-vitro test described in Field & Salone (1982) Biochemica et Biophysica, 712, 557-570. The test assesses the ability of a test compound to inhibit the acylation of cholesterol by oleic acid by measuring the amount of radiolabeled cholesterol oleate formed from radiolabeled oleic acid in a tissue preparation containing rat liver microsomes.
as §2

DGAT1 and DGAT2 [4] = assay: DGAT inhibition (DGAT1 and DGAT2) in human liver microsomes
Protocol: as §1, §2, §3

DGAT1 [5] = molecular target: T2, DGAT1 (Homo sapiens, UniProt O75907); assay: DGAT1 inhibition at 100 mM Mg in human liver microsomes
T2 construct: from tissue; host or cells: human liver microsomes
T2 sequence (O75907 1-488): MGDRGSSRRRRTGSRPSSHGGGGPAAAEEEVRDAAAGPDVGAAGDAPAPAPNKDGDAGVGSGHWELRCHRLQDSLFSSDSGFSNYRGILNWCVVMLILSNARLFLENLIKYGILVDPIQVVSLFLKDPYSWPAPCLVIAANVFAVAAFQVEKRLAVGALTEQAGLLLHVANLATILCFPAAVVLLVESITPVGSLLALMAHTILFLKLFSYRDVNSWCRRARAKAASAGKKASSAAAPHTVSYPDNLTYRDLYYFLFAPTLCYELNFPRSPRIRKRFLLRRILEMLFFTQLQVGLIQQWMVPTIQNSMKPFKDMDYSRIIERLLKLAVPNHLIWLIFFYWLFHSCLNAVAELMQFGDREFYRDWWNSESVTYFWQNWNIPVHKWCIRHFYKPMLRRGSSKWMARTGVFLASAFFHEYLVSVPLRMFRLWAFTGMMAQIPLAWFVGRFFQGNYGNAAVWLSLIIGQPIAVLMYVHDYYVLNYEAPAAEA
Protocol: as §1, §2, §3

ACAT [6] = assay: ACAT inhibition in human liver microsomes
Text: as §4, §2

IC50 (DGAT1 and DGAT2 [1]): 3.41 µM
IC50 (DGAT1 [2]): 2280 nM
IC50 (ACAT [3]): 1030 nM
IC50 (DGAT1 and DGAT2 [4]): 7.95 µM
IC50 (DGAT1 [5]): 3.03 µM
IC50 (ACAT [6]): 5.67 µM
SMILES: CC(C)c1cc(C(C)C)c(CC(=O)NS(=O)(=O)Oc2c(C(C)C)cccc2C(C)C)c(C(C)C)c1 [sulfamic acid [[2,4,6-tris(1-methylethyl)phenyl]acetyl-2,6-bis(1-methylethyl)phenyl ester]
